Like-named read-outs stand apart in the source and are kept apart here. Each block holds one molecule with its values, some of them ahead of it.
Columns and labels:
[1] = system: Chemotherapy-resistant stem cells from advanced Stage 3 and 4 pancreatic cancer human patients; assay: chemotherapy-resistant stem cells from pancreatic cancer patients; assay type: cell-based; conditions: several concentrations
BxPC3 cell line [2] = assay: ATP luminescent detection kit, BxPC3; assay type: cell-based
Procedure: (§1) FIG. 4: Decrease of ATP in BxPC3 cell line: Effect of treatment with the indicated concentrations of GP-2250 on the amount of ATP (dark column) in comparison to the cell viability (light column) after a) 3 h, b) 6 h and c) 24 h incubation at 37° C. The strong decrease of ATP reflects the impairment of the energy metabolism by GP-2250. The decrease of ATP precedes the decrease in cell viability and is therefore not caused by the impairment of cell viability. ATP was measured with a luminescent detection kit (Abcam ab113849), cell viability with the MTT test (Sigma M5655). Data are given as % change versus untreated control (NC), presented as mean+/−S.D. Significance levels in comparison to NC. * p<0.05, ** p<0.01, ***p<0.001.
(§2) The level of ATP in a tumor cell is taken as a measure of the impact of GP-2250 on its energy metabolism. […] The decrease of ATP is already apparent after 3 h with PancTul and at 6 h with the less sensitive BxPC3 at 250 uM. It is this concentration which causes partial inhibition of GAPD (FIG. 1) and thereby links GAPD inhibition to the decrease of ATP, which in itself is a sufficient signal for the induction of apoptosis. […]
(§3) The strong decrease of ATP reflects the impairment of the energy metabolism by GP-2250. […] ATP was measured with a luminescent detection kit (Abcam ab113849), cell viability with the MTT test (Sigma M5655). […]

PancTul cell line [3] = assay: cell viability MTT test, PancTul; assay type: cell-based
Procedure: as §1, with “3:” for “4:”, “PancTul” for “BxPC3”
as §1, with “The” for “FIG. 4: Decrease of ATP in BxPC3 cell line: Effect of treatment with the indicated concentrations of GP-2250 on the amount of ATP (dark column) in comparison to the cell viability (light column) after a) 3 h, b) 6 h and c) 24 h incubation at 37° C. The”

PancTul cell line [4] = assay: ATP luminescent detection kit, PancTul; assay type: cell-based
Procedure: as §1, with “3:” for “4:”, “PancTul” for “BxPC3”
as §2, §3

[5] = biological target: recombinant GAPDH (rGAPDH) (Homo sapiens, UniProt P04406); assay: Glyceraldehyde-3-phosphate Dehydrogenase Activity Assay Kit with recombinant GAPDH; assay type: biochemical
Procedure: FIG. 1: Inhibition of GAPDH enzyme activity: Effect of treatment with GP-2250 (100 uM and 250 uM) on the activity of recombinant GAPDH (rGAPDH) was tested with the Glyceraldehyde-3-phosphate Dehydrogenase Activity Assay Kit (Abcam ab204732) following incubation for up to 60 min at 37° C. The rGAPDH activity is inhibited dose- and time-dependently by 100 uM and 250 uM GP-2250 up to 40% compared to the untreated control. […] The GP-2250 curves are the measured data, not normalized to controls. Data are presented as mean+/−S.D.
The incubation time may be critical as it is a cell-free assay. Specific doses required for a half-maximal or full inhibition of GAPDH are tested in vitro and in vivo in rodents. These in vitro and in vivo data provide a target-related measure of the dose required to inhibit the GAPDH in tissue, e.g., cancer tissue, to various degrees, which is a more direct measure of the impact of the compounds of the present disclosure in contrast to cellular assays such as induction of apoptosis or ROS production.
GAPDH is the rate limiting glycolytic enzyme in cells operating under conditions of aerobic glycolysis, such as tumor cells. Partial inhibition is therefore expected to impair the energy metabolism of tumor cells. This is in contrast to normal cells. […] The GP-2250 curves are the measured data, not normalized to controls. […]

[6] = system: PancTul pancreatic cancer cell line; assay: test of secondary resistance, PancTul; assay type: cell-based; conditions: 6 weekly treatment cycles, BrdU assay
Excerpt: FIG. 9: Test of secondary resistance.
Gemcitabine was used as comparator drug.

[7] = system: PancTul pancreatic cancer cell line; assay: fluorescent ROS detection assay, PancTul; assay type: cell-based
Procedure: (§4) FIG. 2: Formation of ROS: The effect of treatment with the indicated concentrations of GP-2250 on the formation of ROS was tested in two pancreatic cancer cell lines a) PancTul and b) BxPC3, using a fluorescent ROS detection assay (ROS/Superoxide Detection Assay Kit, Abcam (ab139476)) following incubation with GP-2250 for 90 min at 37° C. Negative controls (NC+NAC) contained the ROS inhibitor which is part of the Assay Kit plus N-acetylcysteine (NAC; 5 mM). Untreated control (U). Data are presented as mean+/−S.D. Significance levels calculated in comparison to untreated controls (U). * p<0.05, ** p<0.01, *** p<0.001.
(§5) The effects of treatment with various concentrations of GP-2250 on the formation of ROS was tested in two pancreatic cancer cell lines a) PancTul and b) BxPC3 as shown in FIG. 2. […] The BxPC3 cell line was more sensitive to forming ROS than Panc Tul. The rather high concentrations of GP-2250 which are required for the formation of ROS (equal or higher than 500 uM) are most likely due to the short incubation time of 90 minutes in this cellular assay. A higher potency of GP-2250 would be expected at longer incubation times.
(§6) Untreated control (U). Data are presented as mean+/−S.D. Significance levels calculated in comparison to untreated controls (U). * p<0.05, ** p<0.01, *** p<0.001.

Bax = assay: Western blot of Bax expression in PancTul cells; assay type: cell-based; conditions: 200 μM, 0 h, 6 h, 12 h and 24 h, α-tubulin as control
Procedure: (§7) FIG. 5: Regulation of oncoproteins Bax and Bcl-2 expression: Effect of treatment with 200 μM GP-2250 for 0 h, 6 h, 12 h and 24 h on the expression of the oncoproteins a) Bax and b) Bcl-2 was tested in PancTul cells by Western blots with α-tubulin as control. The expression of the pro-apoptotic protein Bax was increased whereas the expression of the anti-apoptotic Bcl-2 was decreased over time of incubation with GP-2250.
(§8) Apoptotic pathways are triggered by a decrease of ATP or an increase of ROS. They result in a shift of the equilibrium between the pro-apoptotic (death) protein Bax and the anti-apoptotic (survival) protein Bcl-2. The mitochondria are destabilized and the apoptotic caspase cascade finalizes the apoptotic cell suicide. GP-2250 (200 μM) increased the expression of Bax and decrease the expression of BCl-2 with increasing incubation times as shown in the Western blots (FIG. 5). […] In addition, the concentration of GP-2250 which is sufficient to change the Bax/Bcl-2 ratio (200 uM) corresponds to that for partial GAPDH inhibition (250 uM) (FIG. 1). This finding links GAPDH inhibition to the induction of apoptosis.
(§9) The expression of the pro-apoptotic protein Bax was increased whereas the expression of the anti-apoptotic Bcl-2 was decreased over time of incubation with GP-2250.

[8] = system: Bo80 pancreatic primary cancer cell line
Procedure: (§10) Controls corresponded to cells cultured for 8 weeks without drug treatment (dark columns).
(§11) Secondary resistance to 2250 was tested to imitate the repetitive bolus administration of the drug over a period of up to 8 weeks. Gemcitabine was used as comparator drug. A potential secondary resistance was expected to manifest itself in a decreased ability of either drug to impair cell viability. The study was performed with 3 pancreatic tumor cell lines, AsPC-1, PancTul and Bo80, the latter being a primary cell line derived from a pancreatic cancer patient. The cells were treated once a week for 24 hours with 2250 or gemcitabine at a dose which destroyed 80-90% of the cells. Subsequently, the media were exchanged and the cells were allowed to regrow in the absence of drug for 6 days.
(§12) This weekly treatment cycle of cell killing and regrowth was repeated for both drugs for 4 weeks, 6 weeks and 8 weeks. Untreated cultures of 4, 6 and 8 weeks were used as controls. Cell viability was tested with the BrdU assay or the MTT assay at 2 hour, 24 hour, and 6 days in every treatment cycle for 4, 6 and 8 weeks.

[9] = system: BxPC3 pancreatic cancer cell line; assay: fluorescent ROS detection assay, BxPC3; assay type: cell-based
Procedure: as §4, §5, §6

[10] = system: AsPC-1 pancreatic cancer cell line
Procedure: (§13) Following 4 weekly cycles of cytotoxic treatment and regrowth (see text), the cytotoxic potency of GP-2250 (FIG. 8A) and of gemcitabine (FIG. 8B) was tested with the BrdU and MTT assay respectively in the AsPC-1 pancreatic cancer cell line (light columns). Controls corresponded to cells cultured for 4 weeks without drug treatment (dark columns).
as §11, §12

[11] = system: primary cell line derived from human pancreatic cancer (Bo80); assay: cell viability MTT assay, Bo80 primary pancreatic cancer cells; assay type: cell-based; conditions: 24 h at 37° C.
Procedure: FIG. 6: Synergy between GP-2250 and Gemcitabine: Cell viability was tested in a primary cell line derived from human pancreatic cancer (Bo80). […] When combined, a striking synergy was observed. The number of viable cells was reduced by 70-75%. Cell viability was tested colorimetically using the MTT assay. […] Reduction of chemotherapy drug-related toxicity can be achieved in vitro using the combinations with GP-2250 while maintaining high efficacy. The combination of GP-2250 with gemcitabine was therefore tested in mouse models of patient-derived xenografts to assess the therapeutic potential of this drug combination in vivo (see FIGS. 12-15; FIG. 18). […] When combined, a striking synergy was observed. The number of viable cells was reduced by 70-75%. Cell viability was tested colorimetically using the MTT assay.

[12] = system: neuroendocrine cell line QGP-1
Procedure: (§14) Neuroendocrine tumors were tested in vitro using the neuroendocrine cell line QGP-1 and in vivo using mouse models with a QGP-1 cell xenograft and a Bo99 patient-derived pancreatic cancer tissue graft.

Bcl-2 = assay: Western blot of Bcl-2 expression in PancTul cells; assay type: cell-based; conditions: 200 μM, 0 h, 6 h, 12 h and 24 h, α-tubulin as control
Procedure: as §7, §8, §9

BxPC3 cell line [13] = assay: cell viability MTT test, BxPC3; assay type: cell-based
Procedure: as §1
as §1, with “The” for “FIG. 4: Decrease of ATP in BxPC3 cell line: Effect of treatment with the indicated concentrations of GP-2250 on the amount of ATP (dark column) in comparison to the cell viability (light column) after a) 3 h, b) 6 h and c) 24 h incubation at 37° C. The”

[14] = system: AsPC-1 pancreatic cancer cell line; assay: test of secondary resistance, AsPC-1; conditions: AsPC-1, 4 weekly treatment cycles, MTT assay, vs untreated 4-week cultures
Procedure: as §13, §11, §12

[15] = system: neuroendocrine cell line QGP-1; assay: QGP-1 tumor cell viability in vitro
Procedure: as §14

[16] = system: Bo80 pancreatic primary cancer cell line; assay: test of secondary resistance, Bo80; conditions: Bo80, 8 weekly treatment cycles, BrdU assay, vs untreated 8-week cultures
Procedure: as §10, §11, §12

GAPDH = GAPDH (Homo sapiens, UniProt P04406); assay: interactions with GAPDH (covalent labeling); assay type: biochemical
Procedure: Various oxathiazine-like compounds of the present disclosure are synthesized and are assayed for interactions with GAPDH. Isethionic acid amide and methylene glycol were identified as hydrolytic products. A reactive transient reactive intermediate is isethionic acid hydroxymethylamide. […] The covalently labeled enzyme is purified and reactive intermediates are identified using various analytical methods including mass spectrometry of the labeled peptide is elucidated.

recombinant GAPDH (rGAPDH), sequence (P04406 whole entry): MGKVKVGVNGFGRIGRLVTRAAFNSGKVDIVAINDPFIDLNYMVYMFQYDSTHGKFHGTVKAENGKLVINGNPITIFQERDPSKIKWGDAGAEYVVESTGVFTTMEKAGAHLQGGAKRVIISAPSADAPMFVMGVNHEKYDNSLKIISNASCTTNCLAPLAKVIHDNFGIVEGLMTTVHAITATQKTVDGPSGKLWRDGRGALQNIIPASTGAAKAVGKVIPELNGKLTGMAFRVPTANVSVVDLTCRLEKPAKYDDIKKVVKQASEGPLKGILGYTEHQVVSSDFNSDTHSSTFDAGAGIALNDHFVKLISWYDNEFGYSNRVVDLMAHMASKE
GAPDH, sequence (P04406 whole entry): as above

inhibition of rGAPDH activity ([5]; 100 uM and 250 uM GP-2250, incubation up to 60 min at 37° C., compared to untreated control, dose- and time-dependent): up to 40% | inhibition of recombinant GAPDH ([5]; cell-free assay): directly inhibited
Compound: O=S1(=O)CCOCN1 [GP-2250, Tetrahydro1,4,5-oxathiazin-4-dioxide]
effect on chemotherapy-resistant stem cells [1]: some effect at higher concentrations | incubation time at which decrease of ATP is apparent (BxPC3 cell line [2]; BxPC3, 250 uM): 6 h | ATP amount (BxPC3 cell line [2]; BxPC3, 3 h, 6 h, 24 h at 37° C.): decreases depending on the concentration of GP-2250 and the incubation time | impairment of cell viability (MTT) relative to ATP decrease (PancTul cell line [3]): required higher concentrations than those required to decrease ATP | incubation time at which decrease of ATP is apparent (PancTul cell line [4]; 250 uM): 3 h | ATP amount (PancTul cell line [4]; 3 h, 6 h, 24 h at 37° C.): decreases depending on the concentration of GP-2250 and the incubation time | cytotoxic potency after repeated treatment (secondary resistance) [6]: remained unchanged | increase of ROS ([7]; 90 min at 37° C.): concentration dependent | concentrations required for the formation of ROS ([7]; incubation time of 90 minutes): ≥ 500 µM | expression of Bax (Bax): increased | cytotoxic potency after repeated treatment (secondary resistance) [8]: remained unchanged | increase of ROS ([9]; BxPC3, 90 min at 37° C.): concentration dependent | concentrations required for the formation of ROS ([9]; BxPC3, incubation time of 90 minutes): ≥ 500 µM | cytotoxic potency after repeated treatment (secondary resistance) [10]: remained unchanged | cell viability, drug alone ([11]; GP-2250 200 uM): inactive per se | cytotoxic effect in QGP-1 cells, monotherapy [12]: concentration-dependent cytotoxic effect | expression of Bcl-2 (Bcl-2): decreased | impairment of cell viability (MTT) relative to ATP decrease (BxPC3 cell line [13]): required higher concentrations than those required to decrease ATP

Compound: Nc1ccn([C@@H]2O[C@H](CO)[C@@H](O)C2(F)F)c(=O)n1 [gemcitabine]
effect on chemotherapy-resistant stem cells [1]: minimal effect at all tested concentrations | cytotoxic potency after repeated treatment (secondary resistance) [14]: reduced cytotoxic potency | cytotoxic effect in QGP-1 cells, monotherapy [15]: concentration-dependent cytotoxic effect | cytotoxic potency after repeated treatment (secondary resistance) [16]: reduced cytotoxic potency | cell viability, drug alone ([11]; Gemcitabine 100 uM or 1000 uM): inactive per se

interaction with the reactive cysteine-SH in the active center of GAPDH (GAPDH): inactivates the enzyme
Compound: O=S(=O)(CCO)NCO [isethionic acid hydroxymethylamide]

Reference: patent US20220313702A1, “OXATHIAZIN COMPOUNDS FOR INHIBITING GAPDH” (Geistlich Pharma AG, priority 2019, published 2022)
